Measured values published in patent US11672786B2, “Methods of treating diseases associated with repeat instability” (The Hospital for Sick Children, priority 2016, dated 2023).

Test system: single G-T mismatch
Test: in vitro repair assay by HeLa cell extracts, G-T mismatch
Type: biochemical, human
Text: Panel A of […] is a schematic of the in vitro repair assay. Starting DNAs and repair products released the repeat-containing fragment, which is resolved on PAGE and assessed on a molar level by Southern blotting and densitometry. Repair of different DNA substrates containing a long (CAG)20 slip-out (Panel B of FIG. 3) long (CTG)20 slip-out (Panel C of FIG. 3), a single CAG slip-out (Panel D of FIG. 3) or a single G-T mismatch (Panel E of FIG. 3), in the absence or in the presence of NA. Slipped-DNA substrates were prepared from hybrids of (CAG)50●(CTG)30, (CAG)30●(CTG)50 or of (CAG)50●(CTG)49. Repair of the G-T mismatch reconstitutes a HindIII restriction site, as shown schematically. Graphs show percentage repair efficiencies to repaired product relative to all repeat-containing fragments in the lane, values are normalized to the NA-free efficiency. […]
To determine how the binding of NA to slipped DNA structures affects repair, a series of circular slipped heteroduplex substrates was made with an excess of repeats with a nick located either 5′ or 3′ of the slip-out (FIG. 3). […] All these substrates were processed in […] by HeLa extracts and then were assessed for repair. Repair products were analyzed by Southern blotting, probed for the repeat-containing fragment, and compared with starting material, which permitted quantitative assessment of repair efficiency at a molar level. […]

## naphthyridine-azaquinolone
  effect on G-T mismatch repair: no effect
